How the values were obtained:
[1] = refractive index (Na D-line) (dimensionless); settings: 298.15 K; 101.33 kPa; Liquid; Standard Abbe refractometry
[2] = xn = mol fraction of the nth substance listed; settings: 313.15 K, Liquid

O=C=O [carbon dioxide]
313.15 K, Fluid (supercritical or subcritical phases)
Settings	mass density [kg/m3]
1000 kPa	17.9
2000 kPa	37.1
3000 kPa	58.7
4000 kPa	83.5
5000 kPa	112.7
6000 kPa	148.8
7000 kPa	197.3
8000 kPa	276.7
9000 kPa	483.4
10000 kPa	627.4

COC(C)=O [methyl ethanoate]
Settings	mass density [kg/m3]
298.15 K, 101.33 kPa, Liquid	927.1

Settings	Normal boiling temperature [°C]	refractive index
Liquid	56.89	–
[1]	–	1.3594

COC(C)=O [methyl ethanoate] + O=C=O
mass density [kg/m3], [2]
Settings	1000 kPa	2000 kPa	3000 kPa	4000 kPa	5000 kPa	6000 kPa	7000 kPa	8000 kPa	9000 kPa	10000 kPa
x2 = 0	907.9	908.9	909.7	910.9	912	913.1	914.1	915.1	916.1	917.1
x2 = 0.1	910	911.1	912.4	913.5	914.7	915.9	917	918.1	919.2	920.3
x2 = 0.2	–	913.9	915.2	916.6	917.9	919.1	920.4	921.7	922.9	924.1
x2 = 0.3	–	–	–	917.1	918.6	920.1	921.5	922.9	924.3	925.7
x2 = 0.4	–	–	–	917.4	919.2	920.9	922.7	924.3	925.9	927.5
x2 = 0.5	–	–	–	–	915.4	917.5	919.6	921.6	923.7	925.6
x2 = 0.6	–	–	–	–	–	909	912.8	915.5	918.1	920.7
x2 = 0.7	–	–	–	–	–	891.8	895.9	899.7	903.5	907
x2 = 0.8	–	–	–	–	–	–	861.5	868.2	873.8	879.5
x2 = 0.9	–	–	–	–	–	–	–	793.5	808	820.3
x2 = 0.95	–	–	–	–	–	–	–	–	734.6	759.7

— the NIST ThermoML archive (doi:10.1016/j.fluid.2007.01.033)
